From patent US11427588B2, “Compositions and methods for treating neurodegenerative diseases and cardiomyopathy” (THE REGENTS OF THE UNIVERSITY OF CALIFORNIA, priority 2013, dated 2022)
“And” between values parts separate entries of the source, which are not always exact repeats. Equal values may be shown once.

How the values were obtained:
PINK1^G309D = PINK1^G309D (Homo sapiens, UniProt Q9BXM7, G309D); assay: Parkin mitochondrial translocation assay in HeLa cells after CCCP depolarization; assay type: cell-based; set-up: transfection with MitoGFP, mCherry Parkin, and full length PINK1FLAG3 in a 1:4:2 ratio; expressed in transfected cells; host or cells: HeLa; details: for 50% Recruitment Times (R50) mCherry Parkin to depolarized mitochondria: HeLa cells with PINK1^G309D, mCherryParkin, mitoGFP, 48 hours, 25 μM; for delta co-localization: PINK1^G309D expressing cells, algorithm quantified
Protocol: (§1) Parkin phosphorylation and mitochondrial translocation assay: HeLa cells were grown in DMEM supplemented with 10% FBS. Log phase cells were plated in 24 well plates with glass coverslips (Mattek) pretreated with fibronectin. Cells were pretreated with 50 μM of the indicated compound, followed by transfection with MitoGFP, mCherry Parkin, and full length PINK1FLAG3 in a 1:4:2 ratio using Fugene 6 (Promega). Fields of cells were selected by expression of MitoGFP (6 fields/well-3 wells/condition) and imaged at five-minute intervals following depolarization with 5 μM CCCP. Quantification was performed according to published protocols^3 and by creation of a Matlab based script.
(§2) Our ability to enhance PINK1 activity in-vitro using KTP led us to investigate means by which to achieve enhanced activity in cells expressing PINK1. […] We treated cells with either kinetin or adenine (FIG. 2A) and measured Parkin localization following mitochondrial depolarization with CCCP (FIG. 2B). HeLa cells, which have low levels of endogenous PINK1 and PARKIN, were transfected with wildtype or PINK1^G309D, mCherryParkin, and mitoGFP. After 48 hours of incubation with 25 μM adenine, kinetin or equivalent DMSO, we imaged CCCP-mediated depolarization of mitochondria (FIGS. 2C, 2D) and calculated the percentage of GFP labelled mitochondria with mCherryParkin associated (FIG. 2E). In line with previous reports^3, transfection of PINK1^G309D slowed the 50% recruitment (R50) time of mCherryParkin to depolarized mitochondria (23±2 min vs 15±1 min R50) (FIGS. 2C-2E Table.2). […] Using an algorithm to accurately quantify the time dependent change in co-localization, we calculated that PINK1^wt expressing cells achieved a mean change in co-localization of 0.112 with DMSO or adenine and 0.13 with kinetin treatment (FIGS. 7A-7F); PINK1^G309D expressing cells treated with DMSO or adenine achieved delta co-localization of 0.076, but upon addition of kinetin returned to near-PINK1-wildtype levels (0.124).
(§3) To test the PINK1-dependency of our findings, we assayed PINK1 activity by using phospho specific antibodies raised against Parkin's PINK1-specific S65 phosphosite^21 after immuno-precipitating Parkin. […] To test whether kinetin stimulated Parkin localization was due to reversible binding of kinetin to PINK1, we treated the cells with fresh medium for 96 hours before performing a new recruitment assay. Similar recruitment rates were observed following the washout (FIG. 2F). […] We followed previously published methods to calculate the percentage of GFP labeled mitochondria with mCherryParkin associated. Transfection of G309DPINK11-581 slowed the rate of mCherryParkin recruitment (23+2 min vs 15+1 min R50) as per reported results. The addition of kinetin, but not adenine, increased the rate of mCherryParkin recruitment in wt cells from 15+1 to 10+2 min and G309D cells from 23+2 to 15+2 min. We then incubated the cells with kinetin for 2 days, washed the cells with fresh medium then performed the recruitment assay and saw the same increase in the rate of recruitment. […] We developed an algorithm to calculate the change in co-localization. The wtPINK1 cells achieved a mean change in co-localization of 0.11 with DMSO, adenine or kinetin treatment. G309DPINK1 expressing cells treated with DMSO or Adenine, achieved delta co-localization of 0.075 but upon addition of kinetin indicating rescue to the wt level (0.11) (P>0.05).

PINK1^wt = PINK1^wt (Homo sapiens, UniProt Q9BXM7); assay: as above; assay type: cell-based; set-up: transfection with MitoGFP, mCherry Parkin, and full length PINK1FLAG3 in a 1:4:2 ratio; expressed in transfected cells; host or cells: HeLa; details: for 50% Recruitment Times (R50) mCherry Parkin to depolarized mitochondria: HeLa cells with PINK1^wt, mCherryParkin, mitoGFP, 48 hours, 25 μM; for mean change in co-localization: PINK1^wt expressing cells, algorithm quantified
Protocol: as §1, §2, §3

[1] = test system: SH-SY5Y cells with PINK1-silencing shRNA; assay: H2O2 induced apoptosis, Annexin V / PI FACS assay, PINK1-silencing shRNA; assay type: cell-based, human; details: PINK1-silencing shRNA lentivirus; 50 μM 96 hours, 400 μM H2O2
Protocol: Apoptosis assays and PINK1 shRNA: SH-SY5Y cells (ATCC) were cultured in 1:1 mix of F12K and DMEM supplemented with 20% FBS. PINK1 shRNA lentivirus were produced using a pLKO.1 based shRNA (Sigma) by contransfection with Δ8.9 and pMGD2 vectors in HEK293T cells. SH-SY5Y cells were infected with lentivirus followed by selection with puromycin ([…]). The indicated cells were plated in 6-well plates at about 500,000 cells/well, pretreated with 50 μM of the indicated drug or DMSO for 96 hours followed by 400 μM H2O2 treatment. Subsequently, cells were stained with Annexin V-FITC and PI and analyzed (FACS Diva) on a FACS LSRII Cytometer ([…]) Apoptosis was calculated as the difference between H2O2 treated samples and the respective control.
Overexpression of PINK1 in neuronal cells (e.g. dopaminergic (DA)) promotes survival in response to oxidative stress and other mitochondrial toxins^7. Before testing the effects of kinetin on apoptosis, we treated DA neurons with 50 μM of either kinetin or adenine and measured cell density after 10 days. […] SH-SY5Y cells were treated with 50 μM kinetin, adenine or DMSO for 96 hours, followed by 400 μM H2O2 treatment for additional 24 hours. Using a cytometry-based FACS assay involving cellular annexin V and propidium iodide staining, we determined the percentage of apoptotic cells after treatment with DMSO, adenine or kinetin.

PINK1^G309D, sequence (Q9BXM7 78-581 G309D): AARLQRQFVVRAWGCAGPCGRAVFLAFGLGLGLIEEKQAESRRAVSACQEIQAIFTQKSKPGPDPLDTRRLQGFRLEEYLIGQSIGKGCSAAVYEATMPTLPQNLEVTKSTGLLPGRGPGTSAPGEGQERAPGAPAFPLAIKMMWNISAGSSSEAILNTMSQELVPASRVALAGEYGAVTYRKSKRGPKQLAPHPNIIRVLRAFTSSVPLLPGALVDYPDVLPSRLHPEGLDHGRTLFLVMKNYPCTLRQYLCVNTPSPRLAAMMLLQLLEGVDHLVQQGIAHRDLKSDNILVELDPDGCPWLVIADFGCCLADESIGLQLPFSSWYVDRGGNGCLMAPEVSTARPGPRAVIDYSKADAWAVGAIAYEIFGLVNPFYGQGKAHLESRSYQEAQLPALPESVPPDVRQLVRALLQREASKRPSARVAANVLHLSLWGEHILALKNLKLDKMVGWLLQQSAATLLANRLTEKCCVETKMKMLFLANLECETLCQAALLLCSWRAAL
PINK1^wt, sequence (Q9BXM7 78-581): as the sequence (Q9BXM7 78-581 G309D) above, with D232G counted along it

50% Recruitment Times (R50) mCherry Parkin to depolarized mitochondria (PINK1^G309D) | delta co-localization (PINK1^G309D) | delta co-localization (PINK1^G309D; listed as Adenine) | 50% Recruitment Times (R50) mCherry Parkin to depolarized mitochondria (PINK1^wt) | mean change in co-localization (PINK1^wt) | SMILES | total amount of apoptotic cells [1]
23 ± 2 min | 0.076 | 0.075 | 15 ± 1 min | 0.112 and 0.11 | Nc1ncnc2nc[nH]c12 [adenine, reference compound] | 
15±2 min and 15+2 min | 0.124 and 0.11 |  | 10±2 min and 10+2 min | 0.13 and 0.11 | c1coc(CNc2ncnc3[nH]cnc23)c1 [kinetin] | no kinetin effect
